The structures appear in SMILES notation.

This assay addresses T1, human OX2 receptor (Homo sapiens, UniProt O43614).
T1 construct: expressed in transfected cells
T1 sequence (O43614 1-444): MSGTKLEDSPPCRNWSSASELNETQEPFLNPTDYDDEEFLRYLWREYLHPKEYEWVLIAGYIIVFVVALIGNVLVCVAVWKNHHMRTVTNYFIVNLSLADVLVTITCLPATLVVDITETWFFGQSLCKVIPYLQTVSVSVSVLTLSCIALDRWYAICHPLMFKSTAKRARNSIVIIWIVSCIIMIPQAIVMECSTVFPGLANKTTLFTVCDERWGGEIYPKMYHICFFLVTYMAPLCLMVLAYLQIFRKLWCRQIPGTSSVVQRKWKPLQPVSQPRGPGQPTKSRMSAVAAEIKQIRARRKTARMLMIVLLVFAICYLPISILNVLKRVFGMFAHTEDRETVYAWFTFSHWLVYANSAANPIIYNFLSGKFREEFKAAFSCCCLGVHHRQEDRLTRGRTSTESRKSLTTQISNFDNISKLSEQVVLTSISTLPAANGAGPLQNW
The experiment in a line: Measurement of orexin type 2 receptor agonist activity (Fluo-4 calcium fluorescence, FDSS). The assay is classed as cell-based. The note with it: compound at 3 μM; CHO cells forcibly expressing human OX2 receptor; DMSO = 0%, orexin A (human) 10 nM = 100%. An excerpt: Experimental Example 1: Obtainment of Cell Stably Expressing Human Orexin Type 2 Receptor (hOX2R)
To obtain a cell clone stably expressing human orexin type 2 receptor, human orexin type 2 receptor cDNA was inserted into pcDNA3.1(+) plasmid vector (Invitrogen), and a plasmid DNA for expression of human orexin type 2 receptor (pcDNA3.1(+)/hOX2R) was cloned. The plasmid DNA was introduced into CHO-dhfr cell by an electroporation method, and human orexin type 2 receptor expressing clone cells were obtained by limiting dilution method by using G418 drug resistance as a selection marker.
Experimental Example 2: Measurement of Orexin Type 2 Receptor Agonist Activity
CHO cells forcibly expressing human OX2 receptor were seeded in each well of 384 well black transparent bottom plate (BD Falcon) at 7,500 cells/well, and cultured for one day in a 5% CO2 incubator at 37° C. After removal of the medium in the cell plate, assay buffer A containing a calcium indicator (HESS (Life Technologies), 20 mM HEPES (Life Technologies), 0.1% BSA (Wako Pure Chemical Industries, Ltd.), 2.5 μg/mL Fluo-4 AM (DOJINDO Chemical), 0.08% Pluronic F127 (DOJINDO Chemical), 1.25 mM probenecid (DOJINDO Chemical)) was added at 30 μL/well. The plate was stood for 30 min in a 5% CO2 incubator at 37° C., and further stood at room temperature for 30 min. A test compound prepared by diluting with assay buffer B (HESS, 20 mM HEPES, 0.1% BSA) was added at 10 μL/well, and the fluorescence value was measured by FDSSμCELL (Hamamatsu Photonics K.K.) every one sec for 1 min, and thereafter every two sec for 1 min 40 sec. The activity (%) of the test compound was calculated assuming that variation in the fluorescence value when DMSO was added instead of the test compound was 0% […], and variation in the fluorescence value when orexin A (human) (PEPTIDE INSTITUTE, INC.) was added at the final concentration of 10 nM was 100% […]. The activity of each compound at the concentration of 3 μM was shown below.
For the compound `COc1ccc(-c2cccc(C(=O)N(C)C)c2)cc1S(=O)(=O)Nc1cccc(NC2CCN(C(=O)c3cccc(C)c3)C2)c1` (stereo not drawn) [Example 1, 4′-methoxy-N,N-dimethyl-3′-((3-((1-(3-methylbenzoyl)pyrrolidin-3-yl)amino)phenyl)sulfamoyl)biphenyl-3-carboxamide], the “OX2R agonist activity (3 μM, %)” value is given as 103%.
The figure for `COc1ccc(-c2cccc(C(=O)N(C)C)c2)cc1S(=O)(=O)Nc1cccc(OC2CCN(C(=O)c3cccc(C)c3)C2)c1` (stereo not drawn) [Example 2, 4′-methoxy-N,N-dimethyl-3′-((3-((1-(3-methylbenzoyl)pyrrolidin-3-yl)oxy)phenyl)sulfamoyl)bipheny-3-carboxamide] is 90%; for `COc1ccc(-c2cccc(C(=O)N(C)C)c2)cc1S(=O)(=O)Nc1cccc(O[C@H]2CCN(C(=O)c3cccc(C)c3)C2)c1` [Example 6, 4′-methoxy-N,N-dimethyl-3′-((3-(((3S)-1-(3-methylbenzoyl)pyrrolidin-3-yl)oxy)phenyl)sulfamoyl)biphenyl-3-carboxamide] it is 101%; for `COc1ccc(-c2cccc(C(=O)N(C)C)c2)cc1S(=O)(=O)Nc1cccc(O[C@H]2CCN(C(=O)c3ccccc3C)C2)c1` [Example 7, 4′-methoxy-N,N-dimethyl-3′-((3-(((3S)-1-(2-methylbenzoyl)pyrrolidin-3-yl)oxy)phenyl)sulfamoyl)biphenyl-3-carboxamide] it is 92%.
Consider `COc1ccc(-c2cccc(C(=O)N(C)C)c2)cc1S(=O)(=O)Nc1cccc(O[C@H]2CCN(C(=O)c3ccccc3N(C)C)C2)c1` [Example 9, 3′-((3-(((3S)-1-(2-(dimethylamino)benzoyl)pyrrolidin-3-yl)oxy)phenyl)sulfamoyl)-4′-methoxy-N,N-dimethylbiphenyl-3-carboxamide], for which the “OX2R agonist activity (3 μM, %)” value was found to be 91%.
Consider `COc1ccc(-c2cccc(C(=O)N(C)C)c2)cc1S(=O)(=O)Nc1cccc(O[C@H]2CCN(C(=O)c3c(C)cccc3C)C2)c1` [Example 10, 3′-((3-(((3S)-1-(2,6-dimethylbenzoyl)pyrrolidin-3-yl)oxy)phenyl)sulfamoyl)-4′-methoxy-N,N-dimethylbiphenyl-3-carboxamide], for which the “OX2R agonist activity (3 μM, %)” value came out at 106%.
The figure for `COc1ccc(-c2cccc(C(=O)N(C)C)c2)cc1S(=O)(=O)Nc1cccc(O[C@H]2CCN(C(=O)c3cnn(C)c3-c3ccccc3)C2)c1` [Example 13, 4′-methoxy-N,N-dimethyl-3′-((3-(((3S)-1-((1-methyl-5-phenyl-1H-pyrazol-4-yl)carbonyl)pyrrolidin-3-yl)oxy)phenyl)sulfamoyl)biphenyl-3-carboxamide] is 97%.
The figure for `COc1ccc(-c2cccc(C(=O)N(C)C)c2)cc1S(=O)(=O)Nc1cccc(O[C@H]2CCN(C(=O)C3CCCCO3)C2)c1` (stereo partly drawn) [Example 14, 4′-methoxy-N,N-dimethyl-3′-((3-(((3S)-1-(tetrahydro-2H-pyran-2-ylcarbonyl)pyrrolidin-3-yl)oxy)phenyl)sulfamoyl)biphenyl-3-carboxamide] is 95%; for `COc1ccc(-c2cccc(C(=O)N(C)C)c2)cc1S(=O)(=O)Nc1cccc(O[C@H]2CCN(C(=O)C3(c4ccccc4)CC3)C2)c1` [Example 16, 4′-methoxy-N,N-dimethyl-3′-((3-(((3S)-1-((1-phenylcyclopropyl)carbonyl)pyrrolidin-3-yl)oxy)phenyl)sulfamoyl)biphenyl-3-carboxamide] it is 99%; for `COc1ccccc1CC(=O)N1CC[C@H](Oc2cccc(NS(=O)(=O)c3cc(-c4cccc(C(=O)N(C)C)c4)ccc3OC)c2)C1` [Example 17, 4′-methoxy-3′-((3-(((3S)-1-((2-methoxyphenyl)acetyl)pyrrolidin-3-yl)oxy)phenyl)sulfamoyl)-N,N-dimethylbiphenyl-3-carboxamide] it is 90%.
The figure for `COc1ccc(-c2cccc(C(=O)N(C)C)c2)cc1S(=O)(=O)Nc1cccc(O[C@H]2CCN(C(=O)c3cccnc3C(F)(F)F)C2)c1` [Example 23, 4′-methoxy-N,N-dimethyl-3′-((3-(((3S)-1-((2-(trifluoromethyl)pyridin-3-yl)carbonyl)pyrrolidin-3-yl)oxy)phenyl)sulfamoyl)biphenyl-3-carboxamide] is 88%; for `COc1ccc(-c2cccc(C(=O)N(C)C)c2)cc1S(=O)(=O)Nc1cccc(O[C@H]2CCN(C(=O)c3ccc(C)cc3C)C2)c1` [Example 25, 3′-((3-(((3S)-1-(2,4-dimethylbenzoyl)pyrrolidin-3-yl)oxy)phenyl)sulfamoyl)-4′-methoxy-N,N-dimethylbiphenyl-3-carboxamide] it is 97%; for `COc1ccc(-c2cccc(C(=O)N(C)C)c2)cc1S(=O)(=O)Nc1cccc(O[C@H]2CCN(C(=O)c3cccc4c3OCC4)C2)c1` [Example 28, 3′-((3-(((3S)-1-(2,3-dihydro-1-benzofuran-7-ylcarbonyl)pyrrolidin-3-yl)oxy)phenyl)sulfamoyl)-4′-methoxy-N,N-dimethylbiphenyl-3-carboxamide] it is 101%.
For `COc1ccc(-c2cccc(C(=O)N(C)C)c2)cc1S(=O)(=O)Nc1cccc(O[C@H]2CCN(C(=O)c3cnn(C)c3C(F)(F)F)C2)c1` [Example 29, 4′-methoxy-N,N-dimethyl-3′-((3-(((3S)-1-((1-methyl-5-(trifluoromethyl)-1H-pyrazol-4-yl)carbonyl)pyrrolidin-3-yl)oxy)phenyl)sulfamoyl)biphenyl-3-carboxamide], the “OX2R agonist activity (3 μM, %)” value is 98%.
The figure for `COc1ccc(N2CCCCC2=O)cc1S(=O)(=O)Nc1cccc(O[C@H]2CCN(C(=O)c3c(C)cccc3C)C2)c1` [Example 30, N-(3-(((3S)-1-(2,6-dimethylbenzoyl)pyrrolidin-3-yl)oxy)phenyl)-2-methoxy-5-(2-oxopiperidin-1-yl)benzenesulfonamide] is 89%; for `COc1ccc(N2CCOCC2)cc1S(=O)(=O)Nc1cccc(O[C@H]2CCN(C(=O)c3c(C)cccc3C)C2)c1` [Example 31, N-(3-(((3S)-1-(2,6-dimethylbenzoyl)pyrrolidin-3-yl)oxy)phenyl)-2-methoxy-5-(morpholin-4-yl)benzenesulfonamide] it is 75%; for `COc1ccc(-c2cccc(C(=O)N(C)C)c2)cc1S(=O)(=O)Nc1cccc(O[C@H]2CCN(C(=O)c3cc(C)ccc3C)C2)c1` [Example 32, 3′-((3-(((3S)-1-(2,5-dimethylbenzoyl)pyrrolidin-3-yl)oxy)phenyl)sulfamoyl)-4′-methoxy-N,N-dimethylbiphenyl-3-carboxamide] it is 92%.
The figure for `COc1ccc(C2CCCCN2C(C)=O)cc1S(=O)(=O)Nc1cccc(O[C@H]2CCN(C(=O)c3c(C)cccc3C)C2)c1` (stereo partly drawn) [Example 33, 5-(1-acetylpiperidin-2-yl)-N-(3-(((3S)-1-(2,6-dimethylbenzoyl)pyrrolidin-3-yl)oxy)phenyl)-2-methoxybenzenesulfonamide] is 89%; for `Cc1cccc(C)c1C(=O)N1CC[C@H](Oc2cccc(NS(=O)(=O)c3cccc(-c4cccc(C(=O)N(C)C)c4)c3)c2)C1` [Example 34, 3′-((3-(((3S)-1-(2,6-dimethylbenzoyl)pyrrolidin-3-yl)oxy)phenyl)sulfamoyl)-N,N-dimethylbiphenyl-3-carboxamide] it is 94%.
The figure for `Cc1cccc(C)c1C(=O)N1CC[C@H](Oc2cccc(NS(=O)(=O)c3cc(-c4cccc(C(=O)N(C)C)c4)ccc3F)c2)C1` [Example 35, 3′-((3-(((3S)-1-(2,6-dimethylbenzoyl)pyrrolidin-3-yl)oxy)phenyl)sulfamoyl)-4′-fluoro-N,N-dimethylbiphenyl-3-carboxamide] is 99%; for `CCCS(=O)(=O)Nc1cccc(O[C@H]2CCN(C(=O)c3c(C)cccc3C)C2)c1` [Example 36, N-(3-(((3S)-1-(2,6-dimethylbenzoyl)pyrrolidin-3-yl)oxy)phenyl)propane-1-sulfonamide] it is 23%.

Values taken from US11034700B2, “Substituted pyrrolidine compound and use thereof” (Takeda Pharmaceutical Company Limited, priority 2017, dated 2021).
